Read-outs that look alike come from different tables or passages of the source.
Tests used:
HBD1 = experiment: cells; assay type: cell-based, human; conditions: for fold induction at 10000 µM: Homo sapiens, Keratinocyte; for relative gene expression level HBD1: primary keratinocytes, 10000 µM
Procedure: (§1) Primary human epidermal keratinocytes were prepared from neonatal foreskin as described previously (Grether-Beck et al, 1996, 2000, 2003, 2005, 2008) and maintained in culture under serum free conditions using a defined keratinocyte growth medium Keratinocyte SFM (Invitrogen, Heidelberg, Germany) supplemented with bovine pituitary extract (Invitrogen, Heidelberg, Germany) and recombinant epidermal growth factor (Invitrogen, Heidelberg, Germany). Cells were propagated up to passage 2 or 3 at 37°C and 5 % CO2 (Grether-Beck et al, 1996, 2000, 2003, 2005, 2008). For induction of differentiation NHEKs were seeded in 6well plates and grown up to confluence.
(§2) For assessment of gene expression total RNA was extracted from frozen biopsies (Ø 4 mm) and gene expression measured by semiquantitative RT-PCR. For isolation of RNA from frozen skin biopsies, 600 µl lysis buffer from PeqGold Total RNA Kit (PeqLab, Erlangen, Germany) were added and the samples were disrupted in a MixerMill MM300 (Retsch, Haan, Germany) three times for 3 min with 30 Hz. 50 ng total RNA were used for cDNA synthesis. PCR reactions were performed in an Opticon 1 (MJ Research, Waltham, MA, USA) using Sybr QPCR Supermix w. Rox (Invitrogen, Karlsruhe, Germany). PCR conditions were as follows: activation of hot start taq polymerase 94° C 15 minutes; denaturation 95° C, 20 seconds; annealing, 55° C, 20 seconds; extension, 72° C 30 seconds. Each sample was subjected to PCR in double using the appropriate primer pairs for 45-50 cycles. For comparison of relative expression in real time PCR control cells and treated cells the 2 (-della delta C(T)) method was used (Livak KJ, and Schmittgen TD. Analysis of relative gene expression data using real time quantitative PCR and the 2 (-delta delta C(T)) method. Methods 2001: 25: 402 - 408). mRNA expression of the genes of interest was shown as fold induction as compared to untreated skin samples of the same volunteer. Table 1: Primer pairs for real time PCR
(§3) For determination of relative gene expression in real time PCT the 2(-delta delta C(T))-method was used as described in Livak and Schmittgen (2001) "Analysis of relative gene expression data using real time quantitative PCR and the 2 (-delta delta C(T))-method" Methods 25: 401-408. For statistical analysis, the experimental data were analyzed using the Wilcoxon signed-rank test.
(§4) HNKs were stimulated with 10mM urea for the indicated time points (3h, 6h, 12h, 24h) and processed for RNA analysis (1). Data are the result of a set of three samples for the control and two samples in parallel for the urea stimulated ones. Table 2 indicates the relative gene expression levels after stimulation with urea as compared to untreated contol cells. […] Table 3 indicates the data depicted in Figure 2. [formula] Table 2: Expression of antimicrobial peptides in human keratinocytes after stimulation with urea at different time points after induction.

HBD2 = experiment: cells; assay type: cell-based, human; conditions: for fold induction at 10000 µM: Homo sapiens, Keratinocyte
Procedure: as §1, §2, §3, §4

HBD3 = experiment: cells; assay type: cell-based, human; conditions: for fold induction at 10000 µM: Homo sapiens, Keratinocyte; for relative gene expression level HBD3: primary keratinocytes, 10000 µM
Procedure: as §1, §2, §3, §4

Humpsor = experiment: cells; assay type: cell-based, human; conditions: for fold induction at 10000 µM: Homo sapiens, Keratinocyte
Procedure: as §1, §2, §3, §4

LL-37 = LL-37 gene expression in subconfluent primary human keratinocytes after urea stimulation (real time PCR); assay type: cell-based; conditions: 10mM urea, compared to untreated control cells; for relative gene expression level LL-37: 10000 µM; for fold induction at 10000 µM: Homo sapiens, Keratinocyte, read-out: relative gene expression level LL-37
Procedure: as §1, §2, §3, §4

HBD-2 = experiment: cells; assay type: cell-based, human; conditions: for fold induction at 1000 µM / fold induction at 10000 µM / fold induction at 20000 µM / fold induction at 50000 µM / fold induction at 100000 µM / fold induction at 5000 µM: Homo sapiens, Keratinocyte; for Expression of HBD-2: keratinocytes
Procedure: as §1, §2, §3
as §4, with “Data” for “HNKs were stimulated with 10mM urea for the indicated time points (3h, 6h, 12h, 24h) and processed for RNA analysis (1). Data”

NC(N)=O [urea]
fold induction at 10000 µM (HBD1; 3 h, read-out: relative gene expression level HBD1, 10mM urea, 3h, compared to untreated control cells): 3.1
fold induction at 10000 µM (HBD1; 6 h, read-out: relative gene expression level HBD1, 10mM urea, 6h, compared to untreated control cells): 1.3
fold induction at 10000 µM (HBD1; 12 h, read-out: relative gene expression level HBD1, 10mM urea, 12h, compared to untreated control cells): 1.6
fold induction at 10000 µM (HBD1; 24 h, read-out: relative gene expression level HBD1, 10mM urea, 24h, compared to untreated control cells): 1.6
relative gene expression level HBD1 (HBD1; 3 h): 3.000
relative gene expression level HBD1 (HBD1; 6 h): 1.5000
fold induction at 10000 µM (HBD2; 3 h, read-out: relative gene expression level HBD2, 10mM urea, 3h, compared to untreated control cells): 1.8
fold induction at 10000 µM (HBD2; 6 h, read-out: relative gene expression level HBD2, 10mM urea, 6h, compared to untreated control cells): 1.1
fold induction at 10000 µM (HBD2; 12 h, read-out: relative gene expression level HBD2, 10mM urea, 12h, compared to untreated control cells): 1.5
fold induction at 10000 µM (HBD2; 24 h, read-out: relative gene expression level HBD2, 10mM urea, 24h, compared to untreated control cells): 1.6
relative gene expression level HBD2 (HBD2; primary keratinocytes, 3 h, 10000 µM): 1.7000
fold induction at 10000 µM (HBD3; 3 h, read-out: relative gene expression level HBD3, 10mM urea, 3h, compared to untreated control cells): 4
fold induction at 10000 µM (HBD3; 6 h, read-out: relative gene expression level HBD3, 10mM urea, 6h, compared to untreated control cells): 2
fold induction at 10000 µM (HBD3; 12 h, read-out: relative gene expression level HBD3, 10mM urea, 12h, compared to untreated control cells): 1.6
fold induction at 10000 µM (HBD3; 24 h, read-out: relative gene expression level HBD3, 10mM urea, 24h, compared to untreated control cells): 3.2
relative gene expression level HBD3 (HBD3; 3 h): 3.7000
relative gene expression level HBD3 (HBD3; 6 h): 1.8000
relative gene expression level HBD3 (HBD3; 12 h): 1.7000
relative gene expression level HBD3 (HBD3; 24 h): 3.3000
fold induction at 10000 µM (Humpsor; 3 h, read-out: relative gene expression level Humpsor, 10mM urea, 3h, compared to untreated control cells): 1.9
fold induction at 10000 µM (Humpsor; 6 h, read-out: relative gene expression level Humpsor, 10mM urea, 6h, compared to untreated control cells): 2.6
fold induction at 10000 µM (Humpsor; 24 h, read-out: relative gene expression level Humpsor, 10mM urea, 24h, compared to untreated control cells): 1.5
relative gene expression level Humpsor (Humpsor; primary keratinocytes, 6 h, 10000 µM): 3.1000
relative gene expression level LL-37 (LL-37; 3h, 180 min): 1.9000
relative gene expression level LL-37 (LL-37; 24h, 1440 min): 1.9000
fold induction at 10000 µM (LL-37; 6 h, 6h): 2.8
fold induction at 10000 µM (LL-37; 12 h, 12h): 2.3
fold induction at 10000 µM (LL-37; 24 h, 24h): 2.1
fold induction at 1000 µM (HBD-2; 24 h, read-out: Expression of HBD-2, 24h, 1mM urea): 1.2
fold induction at 10000 µM (HBD-2; 24 h, read-out: Expression of HBD-2, 24h, 10mM urea): 1.5
fold induction at 20000 µM (HBD-2; 24 h, read-out: Expression of HBD-2, 24h, 20mM urea): 3.9
fold induction at 50000 µM (HBD-2; 24 h, read-out: Expression of HBD-2, 24h, 50mM urea): 2.3
fold induction at 100000 µM (HBD-2; 24 h, read-out: Expression of HBD-2, 24h, 100mM urea): 1.3
fold induction at 1000 µM (HBD-2; 48 h, read-out: Expression of HBD-2, 48h, 1mM urea): 0.9
fold induction at 5000 µM (HBD-2; 48 h, read-out: Expression of HBD-2, 48h, 5mM urea): 1.7
fold induction at 10000 µM (HBD-2; 48 h, read-out: Expression of HBD-2, 48h, 10mM urea): 3.3
fold induction at 20000 µM (HBD-2; 48 h, read-out: Expression of HBD-2, 48h, 20mM urea): 19.1
fold induction at 50000 µM (HBD-2; 48 h, read-out: Expression of HBD-2, 48h, 50mM urea): 6.3
fold induction at 100000 µM (HBD-2; 48 h, read-out: Expression of HBD-2, 48h, 100mM urea): 2.3
fold induction at 1000 µM (HBD-2; 72 h, read-out: Expression of HBD-2, 72h, 1mM urea): 2.2
fold induction at 5000 µM (HBD-2; 72 h, read-out: Expression of HBD-2, 72h, 5mM urea): 5.4
fold induction at 10000 µM (HBD-2; 72 h, read-out: Expression of HBD-2, 72h, 10mM urea): 6.5
fold induction at 20000 µM (HBD-2; 72 h, read-out: Expression of HBD-2, 72h, 20mM urea): 13.3
fold induction at 50000 µM (HBD-2; 72 h, read-out: Expression of HBD-2, 72h, 50mM urea): 10.1
fold induction at 100000 µM (HBD-2; 72 h, read-out: Expression of HBD-2, 72h, 100mM urea): 2.9
fold induction at 1000 µM (HBD-2; 96 h, read-out: Expression of HBD-2, 96h, 1mM urea): 1.9
fold induction at 5000 µM (HBD-2; 96 h, read-out: Expression of HBD-2, 96h, 5mM urea): 4.1
fold induction at 10000 µM (HBD-2; 96 h, read-out: Expression of HBD-2, 96h, 10mM urea): 6.1
fold induction at 20000 µM (HBD-2; 96 h, read-out: Expression of HBD-2, 96h, 20mM urea): 15
fold induction at 50000 µM (HBD-2; 96 h, read-out: Expression of HBD-2, 96h, 50mM urea): 12.6
fold induction at 100000 µM (HBD-2; 96 h, read-out: Expression of HBD-2, 96h, 100mM urea): 10.2
Expression of HBD-2 (HBD-2; 24 h, 1000 µM): 1.1000
Expression of HBD-2 (HBD-2; 24 h, 10000 µM): 1.6000
Expression of HBD-2 (HBD-2; 48 h, 1000 µM): 0.7000
Expression of HBD-2 (HBD-2; 48 h, 5000 µM): 1.6000
Expression of HBD-2 (HBD-2; 48 h, 50000 µM): 6.2000
Expression of HBD-2 (HBD-2; 48 h, 100000 µM): 2.6000
Expression of HBD-2 (HBD-2; 72 h, 1000 µM): 2.6000
Expression of HBD-2 (HBD-2; 72 h, 10000 µM): 7.0000
Expression of HBD-2 (HBD-2; 72 h, 20000 µM): 13.2000
Expression of HBD-2 (HBD-2; 96 h, 1000 µM): 1.8000
Expression of HBD-2 (HBD-2; 96 h, 5000 µM): 4.2000
Expression of HBD-2 (HBD-2; 96 h, 100000 µM): 10.9000
